Experimental data published in patent US10933051B2, “Carbapenem compounds and compositions for the treatment of bacterial infections” (FOB Synthesis, Inc., priority 2017, dated 2021).

Experiments:
Assay type in all cases: cell-based
Parameters in all cases: unit not given here
A. baumannii 4010 = assay: MIC by CLSI agar/broth dilution, Test Example 1; settings: Table 2; strain produces OXA-51
Protocol: (§1) The MIC (minimum inhibitory concentration) was determined by the CLSI (Clinical and Laboratory Standards Institute) methods. The agar dilution method for determining antimicrobial susceptibility was carried out using Mueller Hinton-II agar and the amount of inoculation was 10^4 CFU/spot. Broth dilution tests were performed using Mueller Hinton-II broth. All assays were run with the indicated control strains, available from the ATCC (American Type Culture Collection, Rockville, Md.).

A. baumannii KABA 01-33 = assay: MIC by CLSI agar/broth dilution, Test Example 1; settings: Table 2; strain produces OXA-2, VIM-2
Protocol: as §1

E. coli ATCC10536 = assay: MIC by CLSI agar/broth dilution, Test Example 1; settings: Table 2
Protocol: as §1

K. pneumoniae ATCC10031 = assay: MIC by CLSI agar/broth dilution, Test Example 1; settings: Table 2
Protocol: as §1

P. aeruginosa ATCC27853 = assay: MIC by CLSI agar/broth dilution, Test Example 1; settings: Table 2
Protocol: as §1

A. baumannii FSAb-029 = assay: Antimicrobial Susceptibility Test (CLSI), Test Example 3; settings: Table 6; strain produces OXA-2, IMP-1
Protocol: (§2) Antimicrobial Susceptibility Test was performed by the CLSI (Clinical and Laboratory Standards Institute) methods. The agar dilution method for determining antimicrobial susceptibility was carried out using Mueller Hinton-II agar and the amount of inoculation was 10^4CFU/spot. Broth dilution tests were performed using the Mueller Hinton-II broth. All assays were run with the indicated control strains, available from the ATCC (American Type Culture Collection, Rockville, Md.).

A. baumannii FSAb-039 = assay: as above; settings: Table 6; strain produces OXA-51
Protocol: as §2

A. baumannii FSAb-056 = assay: as above; settings: Table 6; strain produces OXA-23, 51
Protocol: as §2

A. baumannii FSAb-141 = assay: as above; settings: Table 6; strain produces PER-1, OXA-23, 51, 66
Protocol: as §2

E. coli FSEco-054 = assay: as above; settings: Table 6; strain produces ESBL
Protocol: as §2

K. pneumoniae BAA-1904 = assay: as above; settings: Table 6; strain produces KPC-3
Protocol: as §2

P. aeruginosa FSPa-102 = assay: as above; settings: Table 6; strain produces IMP-1
Protocol: as §2

P. aeruginosa FSPa-141 = assay: as above; settings: Table 6; strain produces VIM-2
Protocol: as §2

MIC (minimum inhibitory concentration), A. baumannii 4010 (A. baumannii 4010) | MIC (minimum inhibitory concentration), A. baumannii KABA 01-33 (A. baumannii KABA 01-33) | MIC (minimum inhibitory concentration), E. coil ATCC10536 (E. coli ATCC10536) | MIC (minimum inhibitory concentration), K. pneumoniae ATCC10031 (K. pneumoniae ATCC10031) | MIC (minimum inhibitory concentration), P. aeruginosa ATCC27853 (P. aeruginosa ATCC27853) | Compound | antimicrobial susceptibility, Ab FSAb-029 (A. baumannii FSAb-029) | antimicrobial susceptibility, Ab FSAb-039 (A. baumannii FSAb-039) | antimicrobial susceptibility, Ab FSAb-056 (A. baumannii FSAb-056) | antimicrobial susceptibility, Ab FSAb-141 (A. baumannii FSAb-141) | antimicrobial susceptibility, Ec FSEco-054 (E. coli FSEco-054) | antimicrobial susceptibility, Kp BAA-1904 (K. pneumoniae BAA-1904) | antimicrobial susceptibility, Pa FSPa-102 (P. aeruginosa FSPa-102) | antimicrobial susceptibility, Pa FSPa-141 (P. aeruginosa FSPa-141)
8 | 4 | 1 | 0.5 | >32 | C[C@@H](O)[C@H]1C(=O)N2C(C(=O)O)=C(CN(C)CCNC(=O)c3ccc(O)c(O)c3)[C@H](C)[C@H]12 [Compound 8] |  |  |  |  |  |  |  | 
>32 | >32 | 32 | 1 | >32 | COc1ccc(C(=O)NCCN(C)CC2=C(C(=O)O)N3C(=O)[C@H]([C@@H](C)O)[C@H]3[C@H]2C)c(Cl)c1OC [Compound 15] |  |  |  |  |  |  |  | 
16 | 4 | 0.5 | 0.25 | 16 | C[C@@H](O)[C@H]1C(=O)N2C(C(=O)O)=C(CN(C)CC(=O)NCCNC(=O)c3ccc(O)c(O)c3)[C@H](C)[C@H]12 [Compound 20] |  |  |  |  |  |  |  | 
>32 | 32 | 2 | 0.5 | >32 | C[C@@H](O)[C@H]1C(=O)N2C(C(=O)O)=C(CN(C)CC(=O)NCCc3ccc(O)c(O)c3)[C@H](C)[C@H]12 [Compound 22] |  |  |  |  |  |  |  | 
 |  |  |  |  | C[C@@H](O)[C@H]1C(=O)N2C(C(=O)O)=C(CN(CCCNC(=O)c3ccc(O)c(O)c3Cl)CCCNC(=O)c3ccc(O)c(O)c3Cl)[C@H](C)[C@H]12 [Compound 107] | 0.25 | 1 | 2 | 0.5 | 0.5 | >32 | 1 | 1
 |  |  |  |  | C[C@@H](O)[C@H]1C(=O)N2C(C(=O)O)=C(CN(CCCCNC(=O)c3ccc(O)c(O)c3Cl)CCCNC(=O)c3ccc(O)c(O)c3Cl)[C@H](C)[C@H]12 [Compound 108] | 1 | 2 | 4 | 1 | 1 | >32 | 2 | 2
 |  |  |  |  | C[C@@H](O)[C@H]1C(=O)N2C(C(=O)O)=C(CN(CCCNC(=O)c3ccc(O)c(O)c3)CCNC(=O)c3ccc(O)c(O)c3)[C@H](C)[C@H]12 [Compound 109] | 1 | 2 | 4 | 2 | 2 | >32 | 4 | 4
 |  |  |  |  | C[C@@H](O)[C@H]1C(=O)N2C(C(=O)O)=C(CN(CCCNC(=O)c3ccc(O)c(O)c3)CCCNC(=O)c3ccc(O)c(O)c3)[C@H](C)[C@H]12 [Compound 110] | 2 | 8 | 8 | 4 | 4 | >32 | 8 | 16
 |  |  |  |  | C[C@@H](O)[C@H]1C(=O)N2C(C(=O)O)=C(CN(CCCCNC(=O)c3ccc(O)c(O)c3)CCCNC(=O)c3ccc(O)c(O)c3)[C@H](C)[C@H]12 [Compound 111] | 2 | 4 | 8 | 2 | 4 | >32 | 4 | 16
 |  |  |  |  | C[C@@H](O)[C@H]1C(=O)N2C(C(=O)O)=C(CN(CCCNC(=O)c3cccc(O)c3O)CCNC(=O)c3cccc(O)c3O)[C@H](C)[C@H]12 [Compound 112] | 4 | 8 | 32 | 4 | 8 | >32 | 16 | >32
 |  |  |  |  | C[C@@H](O)[C@H]1C(=O)N2C(C(=O)O)=C(CN(CCCCNC(=O)c3cccc(O)c3O)CCCNC(=O)c3cccc(O)c3O)[C@H](C)[C@H]12 [Compound 113] | >32 | >32 | >32 | >32 | >32 | >32 | >32 | >32
 |  |  |  |  | C[C@@H](O)[C@H]1C(=O)N2C(C(=O)[O-])=C(C[N+](C)(CCCNC(=O)c3ccc(O)c(O)c3F)CCCNC(=O)c3ccc(O)c(O)c3F)[C@H](C)[C@H]12 [Compound 114] | 1 | 32 | 8 | 2 | 2 | >32 | 4 | 4
 |  |  |  |  | C[C@@H](O)[C@H]1C(=O)N2C(C(=O)O)=C(CN(C)CC(=O)N(CCCNC(=O)c3ccc(O)c(O)c3F)CCCNC(=O)c3ccc(O)c(O)c3F)[C@H](C)[C@H]12 [Compound 115] | 2 | 4 | 8 | 2 | 2 | >32 | 2 | 4
 |  |  |  |  | C[C@@H](O)[C@H]1C(=O)N2C(C(=O)O)=C(CN(C)CC(=O)N(CCCNC(=O)c3ccc(O)c(O)c3F)CCCNC(=O)c3ccc(O)c(O)c3F)[C@H](C)[C@H]12 [Compound 117] | 2 | 4 | 4 | 2 | 1 | >32 | 2 | 8
 |  |  |  |  | C[C@@H](O)[C@H]1C(=O)N2C(C(=O)[O-])=C(CN(C)CC[N+](C)(CCCNC(=O)c3ccc(O)c(O)c3F)CCCNC(=O)c3ccc(O)c(O)c3F)[C@H](C)[C@H]12 [Compound 118] | 2 | 8 | 8 | 4 | 2 | >32 | 4 | 8
 |  |  |  |  | COc1ccc(C(=O)NCCCN(CCCNC(=O)c2ccc(O)c(O)c2F)CC2=C(C(=O)O)N3C(=O)[C@H]([C@@H](C)O)[C@H]3[C@H]2C)c(F)c1OC [Compound 119] | 4 | 8 | 8 | 8 | 16 | >32 | >32 | >32
 |  |  |  |  | COc1ccc(C(=O)NCCCN(CCCNC(=O)c2ccc(OC)c(OC)c2F)CC2=C(C(=O)O)N3C(=O)[C@H]([C@@H](C)O)[C@H]3[C@H]2C)c(F)c1OC [Compound 120] | >32 | >32 | >32 | >32 | >32 | >32 | >32 | >32
